Measurements taken from ChEMBL document CHEMBL1133820, “Total synthesis and antifungal activity of 9-methoxystrobilurin L as the originally proposed 1,4-benzodioxan structure” (2001).
Calls of active or inactive are those of the source. The calls are words filed in the database; no cut-off is given here.

Legend:
[1] = test system: Candida albicans; assay: Antifungal activity against Candida albicans determined as diameter of inhibition zone at a concentration of 0.1 ug/disk; Not effective; assay type: functional, organism-based
[2] = test system: Candida albicans; assay: Antifungal activity against Candida albicans determined as diameter of inhibition zone at a concentration of 1 ug/disk; Not effective; assay type: functional, organism-based
[3] = test system: Fusarium solani; assay: Antifungal activity against Fusarium solani determined as diameter of inhibition zone at a concentration of 0.1 ug/disk; Not effective; assay type: functional, organism-based
[4] = test system: Fusarium solani; assay: Antifungal activity against Fusarium solani determined as diameter of inhibition zone at a concentration of 1 ug/disk; Not effective; assay type: functional, organism-based
[5] = test system: Penicillium citrinum; assay: Antifungal activity against Penicillium citrium determined as diameter of inhibition zone at a concentration of 0.1 ug/disk; Not effective; assay type: functional, organism-based
[6] = test system: Penicillium citrinum; assay: Antifungal activity against Penicillium citrium determined as diameter of inhibition zone at a concentration of 1 ug/disk; Not effective; assay type: functional, organism-based
[7] = test system: Penicillium citrinum; assay: Antifungal activity against Penicillium citrium determined as diameter of inhibition zone at a concentration of 10 ug/disk; Not effective; assay type: functional, organism-based
[8] = test system: Saccharomyces cerevisiae; assay: Antifungal activity against Saccharomyces cerevisiae determined as diameter of inhibition zone at a concentration of 0.1 ug/disk; Not effective; assay type: functional, organism-based
[9] = test system: Aspergillus fumigatus; assay: Antifungal activity against Aspergillus fumigatus determined as diameter of inhibition zone at a concentration of 0.1 ug/disk; Slightly effective; assay type: functional, organism-based
[10] = test system: Saccharomyces cerevisiae; assay: Antifungal activity against Saccharomyces cerevisiae determined as diameter of inhibition zone at a concentration of 1 ug/disk; Not effective; assay type: functional, organism-based
[11] = test system: Saccharomyces cerevisiae; assay: Antifungal activity against Saccharomyces cerevisiae determined as diameter of inhibition zone at a concentration of 0.1 ug/disk; Slightly effective; assay type: functional, organism-based
[12] = test system: Aspergillus fumigatus; assay: Antifungal activity against Aspergillus fumigatus determined as diameter of inhibition zone at a concentration of 10 ug/disk; assay type: functional
[13] = test system: Aspergillus fumigatus; assay: Antifungal activity against Aspergillus fumigatus determined as diameter of inhibition zone at a concentration of 1 ug/disk; Slightly effective; assay type: functional, organism-based
[14] = test system: Candida albicans; assay: Antifungal activity against Candida albicans determined as diameter of inhibition zone at a concentration of 1 ug/disk; Slightly effective; assay type: functional, organism-based
[15] = test system: Candida albicans; assay: Antifungal activity against Candida albicans determined as diameter of inhibition zone at a concentration of 10 ug/disk; assay type: functional
[16] = test system: Fusarium solani; assay: Antifungal activity against Fusarium solani determined as diameter of inhibition zone at a concentration of 10 ug/disk; Not effective; assay type: functional, organism-based
[17] = test system: Saccharomyces cerevisiae; assay: Antifungal activity against Saccharomyces cerevisiae determined as diameter of inhibition zone at a concentration of 1 ug/disk; Slightly effective; assay type: functional, organism-based
[18] = test system: Saccharomyces cerevisiae; assay: Antifungal activity against Saccharomyces cerevisiae determined as diameter of inhibition zone at a concentration of 10 ug/disk; assay type: functional
[19] = test system: Aspergillus fumigatus; assay: Antifungal activity against Aspergillus fumigatus determined as diameter of inhibition zone at a concentration of 10 ug/disk (expt 2); assay type: functional, organism-based
[20] = test system: Candida albicans; assay: Antifungal activity against Candida albicans determined as diameter of inhibition zone at a concentration of 10 ug/disk (expt 1); assay type: functional, organism-based
[21] = test system: Penicillium citrinum; assay: Antifungal activity against Penicillium citrium determined as diameter of inhibition zone at a concentration of 10 ug/disk (expt 1); assay type: functional, organism-based
[22] = test system: Penicillium citrinum; assay: Antifungal activity against Penicillium citrium determined as diameter of inhibition zone at a concentration of 10 ug/disk (expt 2); Not effective; assay type: functional, organism-based
[23] = test system: Saccharomyces cerevisiae; assay: Antifungal activity against Saccharomyces cerevisiae determined as diameter of inhibition zone at a concentration of 10 ug/disk (expt 1); assay type: functional, organism-based
[24] = test system: Saccharomyces cerevisiae; assay: Antifungal activity against Saccharomyces cerevisiae determined as diameter of inhibition zone at a concentration of 10 ug/disk (expt 2); assay type: functional, organism-based
[25] = test system: Aspergillus fumigatus; assay: Antifungal activity against Aspergillus fumigatus determined as diameter of inhibition zone at a concentration of 10 ug/disk (expt 1); assay type: functional, organism-based
[26] = test system: Candida albicans; assay: Antifungal activity against Candida albicans determined as diameter of inhibition zone at a concentration of 10 ug/disk (expt 2); assay type: functional, organism-based

Row | Compound | Diameter of inhibition zone [1] | Diameter of inhibition zone [3] | Diameter of inhibition zone [4] | Diameter of inhibition zone [5] | Diameter of inhibition zone [6] | Diameter of inhibition zone [7] | Diameter of inhibition zone [8] | Diameter of inhibition zone [9] | also measured
1 | C=CC(C)(C)OC(C)(C)[C@@H]1COc2ccc(/C=C/C(OC)=C(C)\C(=C/OC)C(=O)OC)cc2O1 | inactive | inactive | inactive | inactive | inactive | inactive | inactive | Slightly effective | Diameter of inhibition zone [2]: inactive; Diameter of inhibition zone [10]: inactive
2 | C=CC(C)(C)O[C@H]1COc2ccc(/C=C/C(OC)=C(C)\C(=C\OC)C(=O)OC)cc2OC1(C)C | inactive | inactive |  | inactive | inactive |  |  | Slightly effective | Diameter of inhibition zone [11]: Slightly effective
3 | C=CC(C)(C)OC(C)(C)[C@H]1COc2ccc(/C=C/C(OC)=C(C)\C(=C/OC)C(=O)OC)cc2O1 | inactive | inactive | inactive | inactive | inactive | inactive | inactive | Slightly effective | Diameter of inhibition zone [12]: 8 mm; Diameter of inhibition zone [13]: Slightly effective; Diameter of inhibition zone [14]: Slightly effective; Diameter of inhibition zone [15]: 8 mm; Diameter of inhibition zone [16]: inactive; Diameter of inhibition zone [17]: Slightly effective; Diameter of inhibition zone [18]: 8 mm
4 | NYSTATIN |  |  |  |  |  |  |  |  | Diameter of inhibition zone [19]: 8 mm; Diameter of inhibition zone [20]: 16 mm; Diameter of inhibition zone [21]: 10 mm; Diameter of inhibition zone [22]: inactive; Diameter of inhibition zone [23]: 17 mm; Diameter of inhibition zone [24]: 8 mm; Diameter of inhibition zone [25]: 12 mm; Diameter of inhibition zone [26]: 10 mm
